pEC50: −log10 of the molar value.
System: Nippostrongylus brasiliensis
Test: Anthelmintic activity against Nippostrongylus brasiliensis L4 parasitant on day 5 by double serial dilution model
Assay type: functional, organism-based
Conditions: 120 h

| pEC50 | SMILES |
| --- | --- |
| 4.05 | O=C(/C=C/c1c[nH]c2ccccc12)N/C=C\c1c[nH]c2ccccc12 [CHONDRIAMIDE C] |
| 3.52 | COc1cccc2c(/C=C/C(=O)N/C=C/c3cn(C)c4ccccc34)cn(C)c12 |
| 3.59 | O=C(/C=C/c1c[nH]c2ccccc12)N/C=C/c1c[nH]c2ccccc12 [CHONDRIAMIDE A] |
| 2.63 | NC(=O)/C=C/c1c[nH]c2ccccc12 |

Source: ChEMBL document CHEMBL1151333, “A new indole derivative from the red alga Chondria atropurpurea. Isolation, structure determination, and anthelmintic activity” (J Nat Prod, 1998)
